From patent US11691992B2 (Anacor Pharmaceuticals, Inc., priority 2017, dated 2023)
Like-named read-outs stand apart in the source and are kept apart here.

Tests used:
Format in all cases: cell-based
[1] = test system: bloodstream forms of T. b. rhodesiense STIB 900; assay: T. brucei rhodesiense STIB 900 growth inhibition assay; settings: Trypanosoma brucei, 72 h
Description: Example 110. T. brucei rhodesiense STIB 900 Growth Inhibition Assay
The parasite strain used in this assay was isolated in 1982 from a human patient in Tanzania and after several mouse passages cloned and adapted to axenic culture conditions, ((a) Baltz, T., D. Baltz, C. Giroud, and J. Crockett. EMBO Journal, 1985, 4:1273-1277. (b) Thuita, J. K., S. M. Karanja, T. Wenzler, R. E. Mdachi, J. M. Ngotho, J. M. Kagira, R. Tidwell, and R. Brun. Acta Tropica 2008, 108:6-10.) Minimum Essential Medium (50 μl) supplemented with 25 mM HEPES, 1 g/l additional glucose, 1% MEM non-essential amino acids (100×), 0.2 mM 2-mercaptoethanol, 1 mM Na-pyruvate and 15% heat inactivated horse serum was added to each well of a 96-well microtiter plate. Serial drug dilutions of seven 3-fold dilution steps covering a range from 90 to 0.123 μg/ml were prepared. Then 10^4 bloodstream forms of T. b. rhodesiense STIB 900 in 50 μl was added to each well and the plate incubated at 37° C. under a 5% CO2 atmosphere for 72 h. 10 μl Alamar Blue (resazurin, 12.5 mg in 100 ml double-distilled water) was then added to each well and incubation continued for a further 2-4 h, (Raz, B., M. Iten, Y. Grether-Buhler, R. Kaminsky, and R. Brun. Acta Trap 1997, 68:139-47.) Then the plates were read with a Spectramax Gemini XS microplate fluorometer (Molecular Devices Cooperation, Sunnyvale, Calif., USA) using an excitation wave length of 536 nm and an emission wave length of 588 nm. Data were analyzed using the microplate reader software Softmax Pro (Molecular Devices Cooperation, Sunnyvale, Calif., USA).

[2] = test system: IL3000 T. congolense (drug sensitive) strain; assay: In vitro Alamar Blue 72 h drug sensitivity assay for T. congolense
Procedure: Example 106. In Vitro Alamar Blue 72 h Drug Sensitivity Assay for T. congolense
Compounds were tested in vitro for chemotherapeutic potency against the IL3000 T. congolense (drug sensitive) strain, using the Alamar Blue assay with several modifications. Test compounds were prepared as 10 mg/mL DMSO stocks for each assay run. Compounds were assayed in at least three separate, independent test runs and an 11-point dilution curve was used to determine the IC50 values. Bloodstream form trypanosomes were supported in HMI media containing 20% bovine serum and were incubated with test compounds for 69 h at 34° C. in a humidified atmosphere containing 5% CO2. Thereafter, 10 μL of Resazurin dye (12.5 mg in 100 mL of phosphate buffered saline, Sigma-Aldrich, Buchs, Switzerland) were added for an additional 3 h. Plates were then read using a fluorescent plate reader (Spectramax, Gemini XS, Bucher Biotec, Basel, Switzerland) using an excitation wavelength of 536 nm and an emission wavelength of 588 nm. Data points were averaged to generate sigmoidal dose-response curves and IC50 values were determined using Softmax Pro 5.2 software.

[3] = test system: L. infantum MHOM/MA(BE)/67 amastigotes in primary peritoneal mouse macrophages; assay: Leishmania infantum intracellular amastigote assay in mouse macrophages; settings: Macrophage, 120 h
Procedure: Example 111. Leishmania infantum Intracellular Amastigote Assay in Mouse Macrophages
L. infantum MHOM/MA(BE)/67 amastigotes were collected from the spleen of an infected donor hamster and used to infect primary peritoneal mouse macrophages. (Kaiser, M., Maes, L., Tadoori, L. P., Spangenberg, T., Ioset, J.-R. J. Biomol. Screen. 2015 20(5), 634-35.) To determine in vitro antileishmanial activity, 3×10^4 macrophages were seeded in each well of a 96-well plate. Culture medium was RPMI-1640 supplemented with L-glutamine (20 mM), 16.5 mM sodium hydrogen carbonate, and 10% fetal calf serum (FCS). After 2 d of outgrowth, 5×10^5 amastigotes/well were added and incubated for 2 h at 37° C. Prediluted samples to be tested were subsequently added, and the plates were further incubated for 5 d at 37° C. and 5% CO2. Total parasite burdens in the well were microscopically assessed after Giemsa staining and expressed as a percentage of the total burden in the blank controls without compound. In treated wells with high amastigote burdens, an overall estimate of the total burden per well was made without discrimination between the number of infected macrophages and the number of amastigotes per infected cell. In treated wells with low burdens, exact counting was performed. The 50% inhibitory concentrations (IC50s) were then generated for each dose response test using GraphPad Prism (GraphPad Software Inc., San Diego, Calif.) using the nonlinear regression (sigmoidal dose-response/variable slope) equation.

[4] = test system: promastigote forms of L. major; assay: Leishmania major promastigote growth inhibition assay (Alamar Blue); settings: promastigotes, 44 hours + 4 hours Alamar Blue, read-out: IC50: I Org. promastigote Growth L. major, 2 d
Description: Example 108. Leishmania major Promastigote Growth Inhibition Assay
The promastigote assay is a microtiter plate drug sensitivity prescreen assay used to determine antileishmanial activity of candidate drugs against promastigote forms of L. major. (Shadow et al., PLOS Neglected Tropical Diseases, 2009, e311.) Alamar Blue, or resazurin, is a non-fluorescent indicator dye that is converted to bright red-fluorescent resorufin via the activity of mitochondrial reductases. As the activity of mitochondrial reductases is reduced in cells that are dead or dying, and the intensity of the fluorescence is relative to cell number, a test compound that kills or inhibits growth of a particular target cell, such as L. major, will result in a lower production of fluorescent signal. Pre-dosed microtiter drug plates for use in the promastigote drug prescreen assay were produced using sterile 384-well black optical bottom tissue culture plates (Nunc Cat #12-565-344). Candidate drugs were diluted in dimethyl sulfoxide in four 96-well plates to either 10,000 ng/ml or 1,000 ng/ml, and 4.25 μL of diluted drug was subsequently dispensed into each well of a 384-well plate. Duplicate 384 well plates were made at each test concentration (10,000 ng/mL and 1,000 ng/mL) and amphotericin B was used as a batch control. The Tecan EVO Freedom liquid handling system (Tecan US, Inc., Durham, N.C.) was used to produce all drug assay plates and conduct all pipetting operations for this assay. L. major parasites were cultured in Schneider's medium (Lonza Cat #04-351Q) supplemented with 20% heat inactivated FBS (Invitrogen Cat #16140-089). Promastigotes in early log growth phase were harvested from culture, counted, suspended at 1.32×10^5 cells/mF and 5,000 promastigotes were dispensed into each well of the 384 well plate in a volume of 38.8 μL. The 384 well plates were subsequently incubated at 28° C. for 44 hours. 8.4 μF of Alamar Blue (Promega, Cat #G8081) was added to each well, the plates were subsequently incubated at 28° C. and 5% CO2 for 4 hours and then examined for the relative fluorescence units (RFU) per well using the Tecan Genios Plus (Tecan US, Inc., Durham, N.C.) with excitation set at 560 nm and emission set at 590 nm. The relative fluorescence from each well was used to determine the percent growth inhibition of each candidate compound tested. Compounds with 50% or greater inhibition of growth were selected for further analysis to determine IC50 values.

[5] = bloodstream forms, Alamar Blue, protocol of Example 110, read-out: IC50: I Org. Growth T. brucei rhodesiense STIB 900, 3 d
[6] = Trypanosoma congolense; read-out: inhibition of T. congolense IL-3000 growth at a concentration of 1.0 μM (classes D, E)
[7] = amastigotes in primary peritoneal mouse macrophages, 5 d, Giemsa staining, read-out: Inhibition of Organism Growth in Leishmania infantum MHOM/MA/BE/67, 5 d

Structure (SMILES)	IC50 [1, 5] [µM]	inhibition at 1 µM [2, 6] [%]	IC50 [3, 7] [µM]	IC50 [4] [nM]	other results
Cn1nc(-c2cccnc2)nc1C(=O)Nc1ccc2c(c1)B(O)OC2 [Example 78b, N-(1-hydroxy-1,3-dihydrobenzo[c][1,2]oxaborol-6-yl)-1-methyl-3-(pyridin-3-yl)-1H-1,2,4-triazole-5-carboxamide]	–	–	–	–	IC50 ([1]; read-out: IC50: I Org. Growth T. brucei rhodesiense STIB 900, 3 d [uM]): 0.31 to 10 µM; inhibition at 1 µM ([2]; Trypanosoma congolense, read-out: inhibition of T. congolense IL-3000 growth at a concentration of 1.0 μM (classes D, E)): > 75%; IC50 ([3]; read-out: Inhibition of Organism Growth in Leishmania infantum MHOM/MA/BE/67, 5 d [uM]): 20 to 100 µM
Cn1nc(C(=O)Nc2ccc3c(c2)B(O)OC3)nc1-c1ncccc1Cl [Example 76, 5-(3-Chloropyridin-2-yl)-N-(1-hydroxy-1,3-dihydrobenzo[c][1,2]oxaborol-6-yl)-1-methyl-1H-1,2,4-triazole-3-carboxamide]	0.1 to 0.3	> 75	3 to 19.9	–	–
COc1cccc(-c2nc(C(=O)Nc3ccc4c(c3)B(O)OC4)nn2C)n1 [Example 75, N-(1-hydroxy-1,3-dihydrobenzo[c][1,2]oxaborol-6-yl)-5-(6-methoxypyridin-2-yl)-1-methyl-1H-1,2,4-triazole-3-carboxamide]	< 0.1	> 75	< 3	–	–
CCn1nnc(C(=O)Nc2ccc3c(c2)B(O)OC3)c1C [Example 46, 1-ethyl-N-(1-hydroxy-1,3-dihydrobenzo[c][1,2]oxaborol-6-yl)-5-methyl-1H-1,2,3-triazole-4-carboxamide]	–	–	–	2510 to 20000	–
Cn1nc(C(=O)Nc2ccc3c(c2)B(O)OC3(C)C)nc1-c1ccccn1 [Example 79]	–	> 75	20 to 100	–	IC50 ([1]; RHODESIENSE|STIB900, bloodstream forms, Alamar Blue, protocol of Example 110, read-out: IC50: I Org. Growth T. brucei rhodesiense STIB 900, 3 d): 0.31 to 10 µM
O=C(Nc1ccc2c(c1)B(O)OC2)c1nnn(CC2CCC2)c1C(F)(F)F [Example 47, 1-(cyclobutylmethyl)-N-(1-hydroxy-1,3-dihydrobenzo[c][1,2]oxaborol-6-yl)-5-(trifluoromethyl)-1H-1,2,3-triazole-4-carboxamide]	–	–	–	< 600	–
